# Assays:
# anticorps anti-nef = assay: ELISA for detection of anti-nef antibodies on coated peptides or nef; type: binding, humain; conditions: 500 ng coated per well; for intensité de l'immunoréactivité (OD), Serum 1: Serum 1, anti-nef positive; for intensité de l'immunoréactivité (OD), Serum 2: Serum 2, anti-nef positive; for intensité de l'immunoréactivité (OD), Serum 3: Serum 3, anti-nef positive; for intensité de l'immunoréactivité (OD), Serum 4: Serum 4, anti-nef positive; for intensité de l'immunoréactivité (OD), Serum 5: Serum 5, anti-nef positive; for intensité de l'immunoréactivité (OD), Serum 6: Serum 6, anti-nef positive; for intensité de l'immunoréactivité (OD), Serum 7: Serum 7, anti-nef positive; for intensité de l'immunoréactivité (OD), Serum 8: Serum 8, anti-nef positive; for intensité de l'immunoréactivité (OD), Serum 9: Serum 9, anti-nef positive; for intensité de l'immunoréactivité (OD), Serum 10: Serum 10, anti-nef positive; for intensité de l'immunoréactivité (OD), Serum 11: Serum 11, anti-nef positive; for intensité de l'immunoréactivité (OD), Serum 12: Serum 12, anti-nef positive; for intensité de l'immunoréactivité (OD), Serum 13: Serum 13, anti-nef positive; for intensité de l'immunoréactivité (OD), Serum 14: Serum 14, anti-nef positive; for intensité de l'immunoréactivité (OD), Serum 15: Serum 15, anti-nef positive; for intensité de l'immunoréactivité (OD), Serum 16: Serum 16, anti-nef positive; for intensité de l'immunoréactivité (OD), Serum 17: Serum 17, anti-nef positive; for intensité de l'immunoréactivité (OD), Serum 18: Serum 18, anti-nef positive; for intensité de l'immunoréactivité (OD), Serum 19: Serum 19, anti-nef positive; for intensité de l'immunoréactivité (OD), Serum 20: Serum 20, anti-nef positive; for intensité de l'immunoréactivité (OD), Serum 21: Serum 21, anti-nef positive; for intensité de l'immunoréactivité (OD), Serum 22: Serum 22, anti-nef positive; for intensité de l'immunoréactivité (OD), Serum 23: Serum 23, anti-nef positive; for intensité de l'immunoréactivité (OD), Serum 24: Serum 24, anti-nef positive; for intensité de l'immunoréactivité (OD), Serum 25: Serum 25, anti-nef positive; for intensité de l'immunoréactivité (OD), Serum 26: Serum 26, anti-nef positive; for intensité de l'immunoréactivité (OD), Serum 27: Serum 27, anti-nef positive; for intensité de l'immunoréactivité (OD), Serum 28: Serum 28, anti-nef positive; for intensité de l'immunoréactivité (OD), Serum 29: Serum 29, anti-nef positive; for intensité de l'immunoréactivité (OD), Serum 30: Serum 30, anti-nef positive; for intensité de l'immunoréactivité (OD), Serum 31: Serum 31, anti-nef positive; for intensité de l'immunoréactivité (OD), Serum 32: Serum 32, anti-nef negative control serum; for intensité de l'immunoréactivité (OD), Serum 33: Serum 33, anti-nef negative control serum
# Procedure: Des plaques de microtitration à 96 puits ont été recouvertes une nuit avec 500 ng de protéine nef bactérienne, à 37°C ou avec 500 ng de peptides synthétiques par puits dans 50µl de PBS à pH 7,4. Après saturation avec 400 µl de PBS pH 7,4, contenant 5% de caséine, durant 1 heure à 37°C et lavage avec PBS à pH 7,4, 0,5% de BSA, 0,01% tween, 50 µl de sérums à différentes dilutions ont été ajoutés pendant 2 heures à 37°C. Après le rinçage, 50µl de complexes d'IgG de souris anti-humaine-(H + L)-peroxydase 1:1000 ont été incubés pendant 1 heure à 37°C. Après un nouveau rinçage, 100µl de OPD ont été ajoutés pendant 30mn à température ambiante dans l'obscurité. La réaction de l'enzyme a été arrêtée par addition de 50µl d'acide sulfurique 4N et la densité optique des plaques a été lue à 492 nm/620 nm. Les plaques recouvertes avec la caséine ont été utilisées comme contrôle négatif.
# En vue d'étudier la possibilité d'utiliser des peptides synthétiques en tant qu'antigènes pour la détection d'anticorps anti-nef chez des patients infectés par HIV, 8 peptides synthétiques couvrant la totalité de la séquence de la protéine nef de HIV-1 (figure 4) ont été utilisés dans un test ELISA avec 31 sérums anti-nef positifs et 2 sérums anti-nef négatifs utilisés comme contrôle. Les recombinants nef ont été utilisés comme contrôle positif dans les tests ELISA et la caséine a été utilisée comme contrôle négatif. Les résultats de ces expériences sont donnés dans le tableau 4 qui illustre l'essai suivant: Essai ELISA sur 31 sérums anti-nef-positifs et 2 sérums anti-nef- négatifs, soit pré-recouverts avec des peptides synthétiques (PF 11 à PF 18), soit en utilisant nef, la caséine ou un mélange de peptides PF 12 et PF 17. Les sérums ont été sélectionnés au hasard parmi des sérums anti-nef positifs et anti-nefs négatifs testés par la méthode RIA en utilisant ¹²⁵I nef. L'intensité de l'immunoradioactivité est notée "-" pour une densité optique (OD) inférieure à 0,2; "+" pour OD = 0,2 à 0,4; "++" pour OD = 0,4 à 0,8 et "+++" pour OD = 0,8 à 2,0.
# [1] = test system: anticorps anti-protéine F; assay: Western blot test on peptide spots with sera of HIV-1 infected patients; type: binding, humain; parameters: key to réaction avec sérum CHA 1/300, 10µl / réaction avec sérum LOM 1/100, 10µl / réaction avec sérum LOM 1/100, 5µl / réaction avec sérum CHA 1/300, 5µl / réaction avec sérum CHA 1/300, 2µl / réaction avec sérum CHA 1/300, 1µl / réaction avec sérum 1545 1/200, 10µl: ++ signifiant une réaction plus marquée
# Procedure: Pour les besoins du test, les différents peptides PF16, PF19, PF13, PF17 utilisés sont dilués à une concentration de 2 mg/ml.
# Sur une bande de papier BIORAD pour transblot, on dépose différents spots : 1µl, 2µl, 5µl, 10µl.
# Après séchage on pratique un test Western Blot classique en utilisant comme anticorps des sérums de patients infectés par le virus HIV-1, positifs pour la protéine F, à des dilutions variant de 1/100 à 1/300.
# Les peptides testés permettent d'aboutir aux résultats résumés dans le tableau 2 avec trois sérums différents anti-F ++ (++ signifiant une réaction plus marquée).
Sequence,"intensité de l'immunoréactivité (OD), Serum 1 (anticorps anti-nef)","intensité de l'immunoréactivité (OD), Serum 2 (anticorps anti-nef)","intensité de l'immunoréactivité (OD), Serum 3 (anticorps anti-nef)","intensité de l'immunoréactivité (OD), Serum 4 (anticorps anti-nef)","intensité de l'immunoréactivité (OD), Serum 5 (anticorps anti-nef)","intensité de l'immunoréactivité (OD), Serum 6 (anticorps anti-nef)","intensité de l'immunoréactivité (OD), Serum 7 (anticorps anti-nef)","intensité de l'immunoréactivité (OD), Serum 8 (anticorps anti-nef)","intensité de l'immunoréactivité (OD), Serum 9 (anticorps anti-nef)","intensité de l'immunoréactivité (OD), Serum 10 (anticorps anti-nef)","intensité de l'immunoréactivité (OD), Serum 11 (anticorps anti-nef)","intensité de l'immunoréactivité (OD), Serum 12 (anticorps anti-nef)","intensité de l'immunoréactivité (OD), Serum 13 (anticorps anti-nef)","intensité de l'immunoréactivité (OD), Serum 14 (anticorps anti-nef)","intensité de l'immunoréactivité (OD), Serum 15 (anticorps anti-nef)","intensité de l'immunoréactivité (OD), Serum 16 (anticorps anti-nef)","intensité de l'immunoréactivité (OD), Serum 17 (anticorps anti-nef)","intensité de l'immunoréactivité (OD), Serum 18 (anticorps anti-nef)","intensité de l'immunoréactivité (OD), Serum 19 (anticorps anti-nef)","intensité de l'immunoréactivité (OD), Serum 20 (anticorps anti-nef)",other results
XASRDLEKHGAITSSNTAATNAACAWLEAQEEEEZ [PF13],"+ (pour OD = 0,2 à 0,4)","- (pour une densité optique (OD) inférieure à 0,2)","+++ (pour OD = 0,8 à 2,0)","+ (pour OD = 0,2 à 0,4)","- (pour une densité optique (OD) inférieure à 0,2)","- (pour une densité optique (OD) inférieure à 0,2)","++ (pour OD = 0,4 à 0,8)","++ (pour OD = 0,4 à 0,8)","++ (pour OD = 0,4 à 0,8)","- (pour une densité optique (OD) inférieure à 0,2)","- (pour une densité optique (OD) inférieure à 0,2)","- (pour une densité optique (OD) inférieure à 0,2)","- (pour une densité optique (OD) inférieure à 0,2)","++ (pour OD = 0,4 à 0,8)","- (pour une densité optique (OD) inférieure à 0,2)","- (pour une densité optique (OD) inférieure à 0,2)","- (pour une densité optique (OD) inférieure à 0,2)","- (pour une densité optique (OD) inférieure à 0,2)","- (pour une densité optique (OD) inférieure à 0,2)","- (pour une densité optique (OD) inférieure à 0,2)","intensité de l'immunoréactivité (OD), Serum 21 (anticorps anti-nef): - (pour une densité optique (OD) inférieure à 0,2); intensité de l'immunoréactivité (OD), Serum 22 (anticorps anti-nef): - (pour une densité optique (OD) inférieure à 0,2); intensité de l'immunoréactivité (OD), Serum 23 (anticorps anti-nef): - (pour une densité optique (OD) inférieure à 0,2); intensité de l'immunoréactivité (OD), Serum 24 (anticorps anti-nef): - (pour une densité optique (OD) inférieure à 0,2); intensité de l'immunoréactivité (OD), Serum 25 (anticorps anti-nef): - (pour une densité optique (OD) inférieure à 0,2); intensité de l'immunoréactivité (OD), Serum 26 (anticorps anti-nef): - (pour une densité optique (OD) inférieure à 0,2); intensité de l'immunoréactivité (OD), Serum 27 (anticorps anti-nef): - (pour une densité optique (OD) inférieure à 0,2); intensité de l'immunoréactivité (OD), Serum 28 (anticorps anti-nef): - (pour une densité optique (OD) inférieure à 0,2); intensité de l'immunoréactivité (OD), Serum 29 (anticorps anti-nef): ++ (pour OD = 0,4 à 0,8); intensité de l'immunoréactivité (OD), Serum 30 (anticorps anti-nef): - (pour une densité optique (OD) inférieure à 0,2); intensité de l'immunoréactivité (OD), Serum 31 (anticorps anti-nef): - (pour une densité optique (OD) inférieure à 0,2); intensité de l'immunoréactivité (OD), Serum 32 (anticorps anti-nef): - (pour une densité optique (OD) inférieure à 0,2); intensité de l'immunoréactivité (OD), Serum 33 (anticorps anti-nef): - (pour une densité optique (OD) inférieure à 0,2); réaction avec sérum 1545 1/200, 10µl ([1]; serum 1545 diluted 1/200, spot 10µl of peptide at 2 mg/ml): tr; réaction avec sérum CHA 1/300, 1µl ([1]; serum CHA diluted 1/300, spot 1µl of peptide at 2 mg/ml): tr; réaction avec sérum CHA 1/300, 2µl ([1]; serum CHA diluted 1/300, spot 2µl of peptide at 2 mg/ml): tr"
XCRGGLEGMFYSERRHKILNIYLEKEEGIIADZ [PF19],,,,,,,,,,,,,,,,,,,,,"réaction avec sérum CHA 1/300, 5µl ([1]; serum CHA diluted 1/300, spot 5µl of peptide at 2 mg/ml): ++; réaction avec sérum CHA 1/300, 10µl ([1]; serum CHA diluted 1/300, spot 10µl of peptide at 2 mg/ml): ++; réaction avec sérum LOM 1/100, 5µl ([1]; serum LOM diluted 1/100 (column outside the heading of positive sera), spot 5µl of peptide at 2 mg/ml): tr; réaction avec sérum LOM 1/100, 10µl ([1]; serum LOM diluted 1/100 (column outside the heading of positive sera), spot 10µl of peptide at 2 mg/ml): tr; réaction avec sérum P.6. 1/200, 5µl ([1]; serum P.6. diluted 1/200, spot 5µl of peptide at 2 mg/ml): tr"
XGGKWSKSSVVGWPTVRERMRRAEPAADGVGAYCZ [PF11],"- (pour une densité optique (OD) inférieure à 0,2)","- (pour une densité optique (OD) inférieure à 0,2)","- (pour une densité optique (OD) inférieure à 0,2)","- (pour une densité optique (OD) inférieure à 0,2)","- (pour une densité optique (OD) inférieure à 0,2)","- (pour une densité optique (OD) inférieure à 0,2)","++ (pour OD = 0,4 à 0,8)","- (pour une densité optique (OD) inférieure à 0,2)","- (pour une densité optique (OD) inférieure à 0,2)","- (pour une densité optique (OD) inférieure à 0,2)","++ (pour OD = 0,4 à 0,8)","+ (pour OD = 0,2 à 0,4)","- (pour une densité optique (OD) inférieure à 0,2)","- (pour une densité optique (OD) inférieure à 0,2)","- (pour une densité optique (OD) inférieure à 0,2)","- (pour une densité optique (OD) inférieure à 0,2)","- (pour une densité optique (OD) inférieure à 0,2)","- (pour une densité optique (OD) inférieure à 0,2)","+++ (pour OD = 0,8 à 2,0)","- (pour une densité optique (OD) inférieure à 0,2)","intensité de l'immunoréactivité (OD), Serum 21 (anticorps anti-nef): + (pour OD = 0,2 à 0,4); intensité de l'immunoréactivité (OD), Serum 22 (anticorps anti-nef): - (pour une densité optique (OD) inférieure à 0,2); intensité de l'immunoréactivité (OD), Serum 23 (anticorps anti-nef): - (pour une densité optique (OD) inférieure à 0,2); intensité de l'immunoréactivité (OD), Serum 24 (anticorps anti-nef): - (pour une densité optique (OD) inférieure à 0,2); intensité de l'immunoréactivité (OD), Serum 25 (anticorps anti-nef): +++ (pour OD = 0,8 à 2,0); intensité de l'immunoréactivité (OD), Serum 26 (anticorps anti-nef): +++ (pour OD = 0,8 à 2,0); intensité de l'immunoréactivité (OD), Serum 27 (anticorps anti-nef): - (pour une densité optique (OD) inférieure à 0,2); intensité de l'immunoréactivité (OD), Serum 28 (anticorps anti-nef): + (pour OD = 0,2 à 0,4); intensité de l'immunoréactivité (OD), Serum 29 (anticorps anti-nef): + (pour OD = 0,2 à 0,4); intensité de l'immunoréactivité (OD), Serum 30 (anticorps anti-nef): - (pour une densité optique (OD) inférieure à 0,2); intensité de l'immunoréactivité (OD), Serum 31 (anticorps anti-nef): +++ (pour OD = 0,8 à 2,0); intensité de l'immunoréactivité (OD), Serum 32 (anticorps anti-nef): - (pour une densité optique (OD) inférieure à 0,2); intensité de l'immunoréactivité (OD), Serum 33 (anticorps anti-nef): - (pour une densité optique (OD) inférieure à 0,2)"
